For 3 molecules, IC50 results are on record in BindingDB's records for patent US20260062412 (Chugai Seiyaku Kabushiki Kaisha, 2026).

The target of this experiment is T1, Membrane-associated tyrosine- and threonine-specific cdc2-inhibitory kinase (Homo sapiens, UniProt Q99640).
T1 sequence (Q99640 whole entry): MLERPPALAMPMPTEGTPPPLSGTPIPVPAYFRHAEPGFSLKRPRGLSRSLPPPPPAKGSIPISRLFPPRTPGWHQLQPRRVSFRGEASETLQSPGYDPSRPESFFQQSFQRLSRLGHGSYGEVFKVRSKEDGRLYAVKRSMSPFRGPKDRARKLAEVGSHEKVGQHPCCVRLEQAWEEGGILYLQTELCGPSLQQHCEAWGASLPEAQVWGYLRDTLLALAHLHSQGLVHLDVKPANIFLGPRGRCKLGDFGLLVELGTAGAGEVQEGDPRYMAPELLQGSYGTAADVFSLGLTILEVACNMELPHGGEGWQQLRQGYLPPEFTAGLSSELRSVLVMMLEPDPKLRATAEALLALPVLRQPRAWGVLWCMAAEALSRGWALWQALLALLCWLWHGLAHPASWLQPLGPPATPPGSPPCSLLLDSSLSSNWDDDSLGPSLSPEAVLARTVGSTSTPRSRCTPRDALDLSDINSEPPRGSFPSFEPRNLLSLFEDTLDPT
Nature of the experiment: Test for Binding to ATP Binding Site of MYT1. How it is done: Table 3-1 to 3-5: The binding capacity of each compound to the ATP binding site of MYT1 Kinase protein was evaluated. 5× Kinase Buffer A (manufactured by Thermo Fisher Scientific Inc., PV3189) was diluted to 5 times with Milli-Q water, thereby preparing 1× Kinase Buffer. Using 1× Kinase Buffer, MYT1 protein (manufactured by Carna Biosciences, Inc.) was diluted to a concentration of 0.005 μM and Eu-Anti-GST Antibody was diluted to a concentration of 1 μM. […] To a 96 well-plate, 2.5 μL of a compound diluted with DMSO was added. […] The mixture was well mixed and then allowed to stand at room temperature for 30 minutes. Thereafter, fluorescence wavelengths of 665 nm and 615 nm generated by irradiation with excitation light of 340 nm were detected using Envision (manufactured by PerkinElmer). The proportion of Tracer bound to MYT1 protein was calculated for every condition by dividing the intensity at the fluorescence wavelength of 665 nm by the intensity at the fluorescence wavelength of 615 nm.
`CC[C@@H](C)Oc1cc2c(c3cccnc13)NC(=O)C(N)C2c1ccc(F)c2[nH]ncc12` (stereo partly drawn) [US20260062412, Compound C36] displayed an IC50 of 4.2 nM. `N#C[C@H]1C[C@@H](Oc2cc3c(-c4cc(F)c(F)c5[nH]ncc45)c(N)c(=O)[nH]c3c3cccnc23)C1` [US20260062412, Compound C212] gave an IC50 of 1.2 nM. For the molecule `Nc1c(-c2cc(F)c(F)c3[nH]ncc23)c2cc(O[C@H]3C[C@@H](F)C3)c3ncccc3c2[nH]c1=O` [US20260062412, Compound C213], the IC50 came out at 0.83 nM.

In general, IC50 refers to the midpoint of a concentration-inhibition curve.
